In ChEMBL document CHEMBL4043062, “Recent developments in the isolation, biological function, biosynthesis, and synthesis of phenazine natural products” (Bioorg Med Chem, 2017):
Converted amounts (≈) assume the structure as drawn.

Test system: Mycobacterium tuberculosis
Assay: Antitubercular activity against rifampicin-resistant Mycobacterium tuberculosis ATCC 35338 harboring His-526-Tir mutation in rpoB gene after 7 days by Resazurin microtitre assay
Assay type: functional

Work on `C=CCC1Cc2c(c3ccccc3c3nc4ccccc4nc23)OC1(C)C` (stereo unspecified) yielded an MIC of 2.2 µM (≈ 0.78 µg/mL).
